Data taken from patent US8962856B2, “Modulators of cystic fibrosis transmembrane conductance regulator” (Vertex Pharmaceuticals Incorporated, priority 2005, dated 2015).

Target: T1, ΔF508-CFTR (Homo sapiens, UniProt P13569, DEL508-508)
T1 construct: expressed in transfected cells
Assay: Membrane potential optical assay for ΔF508-CFTR correction
Assay type: cell-based
Conditions: for % Efficacy / Emax: relative efficacy
Description: Assays for Detecting and Measuring ΔF508-CFTR Correction Properties of Compounds
I) Membrane Potential Optical Methods for Assaying ΔF508-CFTR Modulation Properties of Compounds
The optical membrane potential assay utilized voltage-sensitive FRET sensors described by Gonzalez and Tsien (See Gonzalez, J. E. and R. Y. Tsien (1995) “Voltage sensing by fluorescence resonance energy transfer in single cells” Biophys J 69(4): 1272-80, and Gonzalez, J. E. and R. Y. Tsien (1997) “Improved indicators of cell membrane potential that use fluorescence resonance energy transfer” Chem Biol 4(4): 269-77) in combination with instrumentation for measuring fluorescence changes such as the Voltage/Ion Probe Reader (VIPR) (See, Gonzalez, J. E., K. Oades, et al. (1999) “Cell-based assays and instrumentation for screening ion-channel targets” Drug Discov Today 4(9): 431-439).
These voltage sensitive assays are based on the change in fluorescence resonant energy transfer (FRET) between the membrane-soluble, voltage-sensitive dye, DiSBAC2(3), and a fluorescent phospholipid, CC2-DMPE, which is attached to the outer leaflet of the plasma membrane and acts as a FRET donor. Changes in membrane potential (Vm) cause the negatively charged DiSBAC2(3) to redistribute across the plasma membrane and the amount of energy transfer from CC2-DMPE changes accordingly. The changes in fluorescence emission were monitored using VIPR™ II, which is an integrated liquid handler and fluorescent detector designed to conduct cell-based screens in 96- or 384-well microtiter plates.
NIH3T3 mouse fibroblasts stably expressing ΔF508-CFTR are used for optical measurements of membrane potential. The cells are maintained at 37° C. in 5% CO2 and 90% humidity in Dulbecco's modified Eagle's medium supplemented with 2 mM glutamine, 10% fetal bovine serum, 1×NEAA, β-ME, 1× pen/strep, and 25 mM HEPES in 175 cm^2 culture flasks. For all optical assays, the cells were seeded at 30,000/well in 384-well matrigel-coated plates and cultured for 2 hrs at 37° C. before culturing at 27° C. for 24 hrs. for the potentiator assay. For the correction assays, the cells are cultured at 27° C. or 37° C. with and without compounds for 16-24 hoursB) Electrophysiological Assays for assaying ΔF508-CFTR modulation properties of compounds

T1 sequence (P13569 with tags, fused parts or gaps DEL508-508): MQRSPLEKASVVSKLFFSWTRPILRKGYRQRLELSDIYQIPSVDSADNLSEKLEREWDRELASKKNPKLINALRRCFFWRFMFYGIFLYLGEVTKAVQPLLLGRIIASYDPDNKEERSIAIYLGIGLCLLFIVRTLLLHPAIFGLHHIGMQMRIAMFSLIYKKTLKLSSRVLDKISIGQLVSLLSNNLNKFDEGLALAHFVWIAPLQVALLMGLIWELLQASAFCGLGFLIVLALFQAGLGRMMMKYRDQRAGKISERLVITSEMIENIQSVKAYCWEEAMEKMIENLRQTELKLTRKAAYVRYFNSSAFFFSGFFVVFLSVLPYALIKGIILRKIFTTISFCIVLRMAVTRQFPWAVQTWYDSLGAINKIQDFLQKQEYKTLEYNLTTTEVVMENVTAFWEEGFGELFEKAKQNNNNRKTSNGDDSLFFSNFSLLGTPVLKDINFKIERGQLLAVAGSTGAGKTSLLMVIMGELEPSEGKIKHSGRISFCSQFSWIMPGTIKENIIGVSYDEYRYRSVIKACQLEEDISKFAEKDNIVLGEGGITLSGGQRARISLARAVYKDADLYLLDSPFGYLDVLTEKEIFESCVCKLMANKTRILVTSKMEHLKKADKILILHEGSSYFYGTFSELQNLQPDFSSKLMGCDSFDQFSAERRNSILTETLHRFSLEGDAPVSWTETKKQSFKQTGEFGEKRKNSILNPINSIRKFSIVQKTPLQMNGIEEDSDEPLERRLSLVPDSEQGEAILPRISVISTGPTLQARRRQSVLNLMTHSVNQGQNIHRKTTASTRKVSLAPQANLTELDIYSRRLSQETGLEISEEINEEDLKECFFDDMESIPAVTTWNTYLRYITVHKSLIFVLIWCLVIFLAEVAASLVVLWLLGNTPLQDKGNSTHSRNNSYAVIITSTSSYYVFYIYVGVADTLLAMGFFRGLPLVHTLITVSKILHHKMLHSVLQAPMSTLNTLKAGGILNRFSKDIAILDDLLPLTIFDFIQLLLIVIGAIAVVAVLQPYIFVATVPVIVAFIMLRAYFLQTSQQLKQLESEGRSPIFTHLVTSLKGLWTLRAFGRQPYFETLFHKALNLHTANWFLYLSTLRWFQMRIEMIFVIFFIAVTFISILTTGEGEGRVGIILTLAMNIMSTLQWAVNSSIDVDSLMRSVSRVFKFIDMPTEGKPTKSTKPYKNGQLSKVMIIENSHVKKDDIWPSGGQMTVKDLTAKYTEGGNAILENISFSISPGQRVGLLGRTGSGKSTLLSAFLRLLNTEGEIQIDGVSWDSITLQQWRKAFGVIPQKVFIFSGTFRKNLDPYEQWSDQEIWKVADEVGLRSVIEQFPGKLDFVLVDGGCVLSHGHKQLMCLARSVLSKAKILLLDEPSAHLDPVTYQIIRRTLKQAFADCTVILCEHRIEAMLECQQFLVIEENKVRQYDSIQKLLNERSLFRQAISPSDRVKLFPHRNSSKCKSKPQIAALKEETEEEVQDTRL

| Molecule | EC50 [nM] | % Efficacy | Emax [%] |
| --- | --- | --- | --- |
| 1-(Benzo[d][1,3]dioxol-6-yl)-N-(5-((S)-(2-chlorophenyl)((R)-3-hydroxypyrrolidin-1-yl)methyl)thiazol-2-yl)cyclopropanecarboxamide [Compound 1] | < 2000 | +++ (“+++” means >100%) | – |
| O=C(Nc1ncc([C@H](c2ccc(Cl)cc2F)N2CC[C@@H](O)C2)s1)C1(c2ccc3c(c2)OCO3)CC1 [Compound 3] | < 2000 | – | > 100 |
| O=C(Nc1ncc(C(c2ccccc2Cl)N2CC[C@@H](O)C2)s1)C1(c2ccc3c(c2)OC(F)(F)O3)CC1 (some centres unmarked) [Compound 11] | – | – | > 100 |
| O=C(Nc1ncc([C@H](c2ccccc2Cl)N2CC[C@@H](O)C2)s1)C1(c2ccc3c(c2)OCO3)CC1 [Compound 12] | < 2000 | – | 25 to 100 |
| O=C(Nc1ncc([C@@H](c2ccc(Cl)c(Cl)c2)N2CC[C@@H](O)C2)s1)C1(c2ccc3c(c2)OCO3)CC1 [Compound 6] | < 2000 | – | > 100 |
| Cc1nc(NC(=O)C2(c3ccc4c(c3)OC(F)(F)O4)CC2)sc1[C@@H](c1ccccc1Cl)N1CC[C@H](O)C1 [Compound 9] | < 2000 | – | > 100 |
| Cc1nc(NC(=O)C2(c3ccc4c(c3)OCO4)CC2)sc1[C@H](c1ccccc1Cl)N1CC[C@H](O)C1 [Compound 8] | < 2000 | – | > 100 |
| O=C(Nc1ncc([C@@H](c2ccccc2Cl)N2CC[C@@H](O)C2)s1)C1(c2ccc3c(c2)OCO3)CC1 [Compound 13] | < 2000 | – | > 100 |
| Cc1nc(NC(=O)C2(c3ccc4c(c3)OCO4)CC2)sc1[C@@H](c1ccccc1Cl)N1CC[C@H](O)C1 [Compound 7] | < 2000 | – | > 100 |
| Cc1nc(NC(=O)C2(c3ccc4c(c3)OC(F)(F)O4)CC2)sc1[C@H](c1ccccc1Cl)N1CC[C@H](O)C1 [Compound 10] | < 2000 | – | > 100 |
| O=C(Nc1ncc([C@H](c2ccc(Cl)cc2F)N2CC[C@@H](O)C2)s1)C1(c2ccc3c(c2)OC(F)(F)O3)CC1 [Compound 4] | < 2000 | – | > 100 |
| 1-(Benzo[d][1,3]dioxol-6-yl)-N-(5-((R)-(2-chlorophenyl)((R)-3-hydroxypyrrolidin-1-yl)methyl)thiazol-2-yl)cyclopropanecarboxamide [Compound 2] | 2000 to 20000 | +++ (“+++” means >100%) | – |
| O=C(Nc1ncc([C@H](c2ccc(Cl)c(Cl)c2)N2CC[C@@H](O)C2)s1)C1(c2ccc3c(c2)OCO3)CC1 [Compound 5] | < 2000 | – | > 100 |
| O=C(Nc1ncc([C@H](c2ccccc2Cl)N2CC[C@@H](O)C2)s1)C1(c2ccc3c(c2)OC(F)(F)O3)CC1 [Compound 11] | < 2000 | – | – |
